The text below walks through data of ChEMBL document CHEMBL5120838, “Synthesis and biological evaluation of geniposide derivatives as inhibitors of hyperuricemia, inflammatory and fibrosis” (Eur J Med Chem, 2022).

Data set [1] concerns Mus musculus. Put plainly: Nephroprotective activity against adenine and potassium oxonate-induced hyperuricemia Kunming mouse model assessed as reduction in renal tubule dilation at 20 mg/kg, po administered via gavage and measured after 21 days by hematoxylin-eosin and Masson trichrome staining based optical microscopic analysis. In kind it is functional, organism-based. Particulars: time 21.0 day.

Data set [2] has as its system Mus musculus. As to the kind of experiment: Nephroprotective activity against adenine and potassium oxonate-induced hyperuricemia Kunming mouse model assessed as reduction in cytoplasmic vacuolation of renal tubular epithelial cells at 20 mg/kg, po administered via gavage and measured after 21 days by hematoxylin-eosin and Masson trichrome staining based optical microscopic analysis. In kind it is functional, organism-based. Particulars: time 21.0 day.

Data set [3] deals with Mus musculus. As to the kind of experiment: Nephroprotective activity against adenine and potassium oxonate-induced hyperuricemia Kunming mouse model assessed as appearance of clear tubular structures at 20 mg/kg, po administered via gavage and measured after 21 days by hematoxylin-eosin and Masson trichrome staining based optical microscopic analysis. In kind it is functional, organism-based. The settings on record: time 21.0 day.

Data set [4] deals with Mus musculus. Put plainly: Nephroprotective activity against adenine and potassium oxonate-induced hyperuricemia Kunming mouse model assessed as reduction in tubular-interstitial lesion development at 20 mg/kg, po administered via gavage and measured after 21 days by hematoxylin-eosin and Masson trichrome staining based optical microscopic analysis. In kind it is functional, organism-based. Particulars: time 21.0 day.

Data set [5] can be described thus: Stability in simulated gastric fluid assessed as parent compound remaining incubated for 4 hrs by HPLC analysis. In kind it is ADME. The settings on record: read-out: Stability.
The subject of data set [6] is Mus musculus. Put plainly: Anti-hyperuricemic activity against adenine and potassium oxonate-induced hyperuricemia Kunming mouse model assessed as reduction in serum uric acid level at 10 mg/kg, po administered via gavage once daily for 4 weeks (reference value: 356.15 +/- 3.31 uM). Type of data set: functional.
The subject of data set [7] is HK-2. As to the kind of experiment: Inhibition of epithelial-mesenchymal transition in human HK-2 cells assessed as downregulation of uric acid-induced alpha-SMA protein expression by Western blot analysis. Type of data set: functional, cell-based. Particulars: dose 12.5-100 µM, DDE = dose-dependent effect. Background: A western blot detects proteins with antibodies after separation by electrophoresis.

In data set [8] the test system is HK-2. Put plainly: Antiinflammatory activity in hyperuricemic human HK-2 cells assessed as reduction in IL-1beta level at 12.5 to 100 uM. Type of data set: functional, cell-based. The settings on record: dose 12.5-100 µM.
In data set [9] the test system is Mus musculus. As to the kind of experiment: Renal protective activity against po dosed adenine and potassium oxonate-induced hyperuricemia Kunming mouse model assessed as reduction in urate accumulation in kidney administered via gavage for 2 weeks by polarization microscopic analysis. In kind it is functional, organism-based. Particulars: dose 5-20 mg/kg, DDE = dose-dependent effect.

In data set [10] the test system is Mus musculus. Put plainly: Renal protective activity against adenine and potassium oxonate-induced hyperuricemia Kunming mouse model assessed as reduction in IL-8 expression in kidney at 5 to 20 mg/kg, po administered via gavage for 2 weeks by ELISA relative to control. In kind it is functional. Set-up: scale not given: the % may be the effect or the level left. The settings on record: dose 5-20 mg/kg. Background: An ELISA detects its analyte on a solid surface through an enzyme-linked reagent.

For data set [11], the system named is Mus musculus. Put plainly: Renal protective activity against adenine and potassium oxonate-induced hyperuricemia Kunming mouse model assessed as reduction in hyperuricemia-induced renal fibrosis by measuring reduction in collagen-1 expression in kidney at 5 to 20 mg/kg, po administered via gavage for 2 weeks by immunoblot analysis. Type of data set: functional, organism-based. Particulars: dose 5-20 mg/kg.

For data set [12], the system named is Mus musculus. Put plainly: Renal protective activity against adenine and potassium oxonate-induced hyperuricemia Kunming mouse model assessed as reduction in renal inflammation by measuring reduction in IkappaBalpha expression at 5 to 20 mg/kg, po administered via gavage for 2 weeks by Western blot analysis. Type of data set: functional, organism-based. The settings on record: dose 5-20 mg/kg.

Calls of active or inactive are those of the source. The calls are words filed in the database; no cut-off is given here.

`CC(=O)OCC1=CC[C@@H]2C(C(=O)Nc3ncco3)=CO[C@@H](O[C@@H]3O[C@H](COC(C)=O)[C@@H](OC(C)=O)[C@H](OC(C)=O)[C@H]3OC(C)=O)[C@H]12`: the result with Mus musculus [1], in the data set with Mus musculus [2], in the data set on Mus musculus [3], in the data set with Mus musculus [4], with HK-2 [8] and with Mus musculus [11] was Active. The outcome with Mus musculus [12] was Active. Further, the remaining at 4 h in data set [5] was 47.6%. Moreover, the Activity with Mus musculus [6] is 188.16 µM; with Mus musculus [9], “Dde”; in the data set on Mus musculus [10], greater than 50%. Moreover, the inhibition entry in the data set with HK-2 [7] was “Dde”.
